Laboratory results from PMC3499368, “Evolution of Minimal Specificity and Promiscuity in Steroid Hormone Receptors” (PLoS Genetics, 2012).
Where two headings read alike, the source gives them in different places.

Legend:
[1] = tested on: AncSR1-LBD; test: luciferase reporter gene assay, Gal4-DBD fusion of AncSR1-LBD in CHO-K1 cells, activation; format: cell-based; conditions: for activation (in words): fold activation at 10^-6 M, Fig. S5C
Excerpt: (§1) To experimentally test these hypotheses, we synthesized cDNAs for the AncSR1 and AncSR2 LBD protein sequences, expressed them as Gal4-DBD fusion constructs, and characterized their sensitivity to hormones using luciferase reporter gene assays.

[2] = tested on: AncSR2-LBD; test: luciferase reporter gene assay, Gal4-DBD fusion of AncSR2-LBD in CHO-K1 cells, activation; format: cell-based; conditions: for EC50: AncSR2, representative dose activation curves (Fig. S4) and Table S5 sections c-i
Excerpt: as §1, with “assays. […] It was unresponsive to a broad array of androgens, progestagens, and corticosteroids, as well as cholesterol (Figure 2A, Figure S3).” for “assays.”
For AncSR2, we identified all plausible alternate reconstructions (those with posterior probability >0.20 excluding biochemically similar K/R, D/E, S/T, and I/L differences) and introduced each alternate state individually into the AncSR2 background using the Quikchange Mutagenesis kit (Stratagene), verified clones by sequencing, and repeated the activation assays with each version of AncSR2 (Figure S6). The ML AncSR2 sequence reconstructed on the ML tree had high baseline activation in the absence of ligand; this phenotype is almost certainly an artifact, because constitutive baseline activity is not present in any of AncSR2's extant descendants; it is well-established that some amino acid replacements can cause nuclear receptors to become constitutive by marginally stabilizing the active conformation in the absence of hormone. […] The “constitutive” Leu79 state is weakly supported on the ML tree (PP = 0.59), and has no support (PP = 0.00) on the phylogeny that is most parsimonious in terms of gene duplications and losses; in contrast, the “non-constitutive” state Met79 has PP = 0.41 on the ML tree and PP = 1.00 on the rearranged gene duplication/loss tree (Figure S12, Table S8). The AncSR2 sequence used for all experiments reported in the text therefore contains state Met79. The other alternate reconstructions were then reintroduced into this AncSR2 sequence: none qualitatively changed the receptor's sensitivity to the various classes of steroid hormones, except for A171V, which conferred constitutive activity (Figure S6).

[3] = tested on: AncSR1_Alt1; test: luciferase reporter assay, alternative reconstruction AncSR1_Alt1; format: cell-based; conditions: for activation (in words): Alt1, fold activation at 10^-6 M, Fig. S5C
Excerpt: (§2) To determine the robustness of functional inferences to statistical uncertainty in the reconstruction of AncSR1 and AncSR2, we used two approaches. AncSR1 had too many ambiguously reconstructed sites to examine each such residue individually, so we computationally sampled from the posterior probability distribution of reconstructed amino acid states to generate a cloud of possible ancestral sequences, each harboring a large number of alternate states. Specifically, we generated 1,000,000 possible ancestral sequences by sampling from the posterior probability distribution of states at each site. […] We synthesized these five radically alternative ancestral reconstructions de novo and repeated the functional assays.
(§3) A) Distribution of posterior probabilities of 1 million protein sequences assembled by sampling amino acid states at each site from the posterior probability distribution for AncSR1 LBD. The ML reconstruction (AncSR1-ML) and the five alternative sequences with the highest posterior probability (Alt1-Alt5) in the 1 million samples are […]
(§4) The column height and error bars indicate the mean and SEM of three independent experiments, respectively. […]

[4] = tested on: AncSR1_Alt2; test: luciferase reporter assay, alternative reconstruction AncSR1_Alt2; format: cell-based; conditions: for activation (in words): Alt2, fold activation at 10^-6 M, Fig. S5C
Excerpt: as §2, §3, §4

[5] = tested on: AncSR1_Alt3; test: luciferase reporter assay, alternative reconstruction AncSR1_Alt3; format: cell-based; conditions: for activation (in words): Alt3, fold activation at 10^-6 M, Fig. S5C
Excerpt: as §2, §3, §4

[6] = tested on: AncSR1_Alt4; test: luciferase reporter assay, alternative reconstruction AncSR1_Alt4; format: cell-based; conditions: for activation (in words): Alt4, fold activation at 10^-6 M, Fig. S5C
Excerpt: as §2, §3, §4

[7] = tested on: AncSR1_Alt5; test: luciferase reporter assay, alternative reconstruction AncSR1_Alt5; format: cell-based; conditions: for activation (in words): Alt5, fold activation at 10^-6 M, Fig. S5C
Excerpt: as §2, §3, §4

[8] = molecular target: T1, estrogen receptor ligand binding domain (Capitella capitata, UniProt C0IRV2); test: activation of the estrogen receptor ligand binding domain of Capitella capitata
T1 sequence (C0IRV2 151-381): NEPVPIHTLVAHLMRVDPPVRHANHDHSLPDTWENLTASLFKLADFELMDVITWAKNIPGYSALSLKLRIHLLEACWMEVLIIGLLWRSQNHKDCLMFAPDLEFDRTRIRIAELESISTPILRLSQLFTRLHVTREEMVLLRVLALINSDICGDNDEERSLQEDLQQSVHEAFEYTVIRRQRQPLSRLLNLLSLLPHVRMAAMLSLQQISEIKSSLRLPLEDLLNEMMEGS
Excerpt: (§5) Fig. S8 Activation of the estrogen receptor ligand binding domains of two annelids (Capitella capitata, a polychaete worm &
(§6) Values adjacent to the hormone legends (red squares and black triangles) indicate the EC50 value for

[9] = molecular target: T2, estrogen receptor ligand binding domain (Platynereis dumerilii, UniProt C0IR13); test: activation of the estrogen receptor ligand binding domain of Platynereis dumerilii
T2 sequence (C0IR13 197-482): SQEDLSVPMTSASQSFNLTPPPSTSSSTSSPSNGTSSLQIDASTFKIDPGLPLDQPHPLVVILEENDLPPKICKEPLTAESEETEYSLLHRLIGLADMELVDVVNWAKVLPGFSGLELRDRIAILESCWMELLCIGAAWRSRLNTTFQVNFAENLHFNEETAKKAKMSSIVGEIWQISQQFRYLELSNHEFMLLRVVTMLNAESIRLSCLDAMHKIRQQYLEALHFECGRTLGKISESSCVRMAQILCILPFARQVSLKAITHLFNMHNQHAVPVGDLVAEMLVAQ
Excerpt: as §5, §6

[10] = molecular target: T3, human estrogen receptor alpha (hERα) (Homo sapiens, UniProt P03372); test: luciferase reporter assay, human ERα LBD; format: cell-based; conditions: Fig. S8
T3 sequence (P03372 311-595 limits assumed): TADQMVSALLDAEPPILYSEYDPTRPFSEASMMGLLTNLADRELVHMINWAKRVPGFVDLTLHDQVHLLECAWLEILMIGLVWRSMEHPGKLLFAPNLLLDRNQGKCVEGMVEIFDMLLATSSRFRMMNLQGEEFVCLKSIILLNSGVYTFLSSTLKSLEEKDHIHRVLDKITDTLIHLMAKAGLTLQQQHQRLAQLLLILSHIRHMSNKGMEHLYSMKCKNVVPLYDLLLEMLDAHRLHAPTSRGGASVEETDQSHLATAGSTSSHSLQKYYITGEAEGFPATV

[11] = molecular target: T4, human mineralocorticoid receptor (hMR) (Homo sapiens, UniProt P08235); test: luciferase reporter assay, human MR LBD; format: cell-based
T4 sequence (P08235 736-984): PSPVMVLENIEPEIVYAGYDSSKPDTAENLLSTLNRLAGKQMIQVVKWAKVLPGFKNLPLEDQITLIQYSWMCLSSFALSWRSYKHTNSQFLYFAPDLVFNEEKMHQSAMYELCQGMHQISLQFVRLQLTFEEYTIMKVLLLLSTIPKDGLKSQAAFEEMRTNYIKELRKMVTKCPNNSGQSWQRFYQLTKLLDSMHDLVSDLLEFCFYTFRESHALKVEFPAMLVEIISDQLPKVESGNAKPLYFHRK

[12] = AncSR2, Table S5 section d, pairs H1/H2: 13/6, 17/8, 15/9, 16/10, 19/23, listed as given under Hormone 1
[13] = AncSR1, representative dose activation curves (Fig. S3) and Table S5 section b
[14] = AncSR2, Table S5 section c, pairs H1/H2: 23/8, 19/18, listed as given under Hormone 1

| SMILES | activation (in words) ([1]; AncSR1-ML) | EC50 ([2]; read-out: EC50) [nM] | activation (in words) [3] | activation (in words) [4] | activation (in words) [5] | activation (in words) [6] | activation (in words) [7] | EC50 [2] [nM] | EC50 [1, 13] [nM] | EC50 [8] [nM] | EC50 [9] [nM] | also measured |
| --- | --- | --- | --- | --- | --- | --- | --- | --- | --- | --- | --- | --- |
| CC(=O)[C@H]1CC[C@H]2[C@@H]3CCC4=CC(=O)CC[C@]4(C)[C@H]3CC[C@]12C [progesterone] | none are activated | 5.5 | none are activated | none are activated | none are activated | none are activated | none are activated |  |  |  |  |  |
| C[C@]12CC[C@H]3[C@@H](CCC4=CC(=O)CC[C@@]43C)[C@@H]1CC[C@@H]2O [testosterone] | none are activated |  | none are activated | none are activated | none are activated | none are activated | none are activated | 116 |  |  |  | Ratio H1/H2 of EC50, preference for 17-acetyl vs. 17-hydroxy group [2, 12]: 21.09; Ratio H2/H1 of EC50, preference for 17-acetyl vs. 17-hydroxy group [2, 12]: 0.05 |
| C[C@]12CC[C@@H]3c4ccc(O)cc4CC[C@H]3[C@@H]1CC[C@@H]2O [estradiol] |  | > 10000 |  |  |  |  |  |  | 49 | 8.6 | 12 | EC80 ([1]; AncSR1, estradiol concentration used in inhibition assay): 200 nM; EC50 ([1]; AncSR1-ML, Fig. S5B): 66 nM; EC50 ([3]; Alt1, Fig. S5B): 50 nM; EC50 ([4]; Alt2, Fig. S5B): 350 nM; EC50 ([5]; Alt3, Fig. S5B): 12 nM; EC50 ([6]; Alt4, Fig. S5B): 316 nM; EC50 ([7]; Alt5, Fig. S5B): 94 nM |
| CC(=O)[C@H]1CCC2C3CCc4cc(O)ccc4C3CC[C@@]21C (stereo partly shown) [NPT, 19-nor-1,3, 5(10)-pregnatriene-3-ol-20-one] |  |  |  |  |  |  |  | 182 | 179 | 8.7 | 1.2 | activation of AncSR1 (in words) ([1]; luciferase reporter): almost as potent an AncSR1 activator as endogenous estrogens; Ratio H1/H2 of EC50, preference for non-aromatized A-ring [2, 14]: 113.75; Ratio H2/H1 of EC50, preference for non-aromatized A-ring [2, 14]: 0.01; EC50 [10]: 5.4 nM |
| C[C@]12CCC(=O)C=C1CC[C@@H]1[C@@H]2[C@@H](O)C[C@@]2(C)[C@H]1CC[C@]2(O)C(=O)CO [cortisol] |  | 9.8 |  |  |  |  |  |  |  |  |  | EC50 [11]: 37 nM |
